Measured values as given in patent publication US10030020B2, “Spirocycle compounds and methods of making and using same” (Abide Therapeutics, Inc., priority 2016, dated 2018).

How the values were obtained:
Assay type in all cases: biochemical
MAGL = MAGL (Mus musculus (Mouse), UniProt O35678); assay: In vitro competitive activity-based protein profiling (mouse brain membrane fraction or cell lysates), MAGL band; details: mouse proteome; for inhibition at 1 µM: read-out: MAGL % Inh 1 μM (mouse); for IC50: competitive ABPP
Method: In Vitro Competitive Activity-Based Protein Profiling.
Proteomes (mouse brain membrane fraction or cell lysates) (50 μL, 1.0 mg/mL total protein concentration) were preincubated with varying concentrations of inhibitors at 37° C. After 30 min, FP—Rh (1.0 μL, 50 μM in DMSO) was added and the mixture was incubated for another 30 min at 37° C. Reactions were quenched with SDS loading buffer (50 μL-4×) and run on SDS-PAGE.

ABHD6 = ABHD6 (Mus musculus (Mouse), UniProt Q8R2Y0); assay: In vitro competitive activity-based protein profiling (mouse brain membrane fraction or cell lysates), ABHD6 band; details: mouse proteome; for inhibition at 1 µM: read-out: ABHD6 % Inh 1 μM (mouse); for IC50: competitive ABPP
In short: (§1)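 Competitive ABPP: proteome 1.0 mg/mL protein + inhibitor, 30 min, 37° C; FP-Rh probe (stock 50 μM in DMSO) added, 30 min, 37° C; SDS quench, SDS-PAGE, fluorescent band intensity read.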

FAAH = FAAH (Mus musculus (Mouse), UniProt O08914); assay: In vitro competitive activity-based protein profiling (mouse brain membrane fraction or cell lysates), FAAH band; details: mouse proteome; for inhibition at 1 µM: read-out: FAAH % Inh 1 μM (mouse); for IC50: competitive ABPP
In short: as §1

Sequence of MAGL (O35678 whole entry): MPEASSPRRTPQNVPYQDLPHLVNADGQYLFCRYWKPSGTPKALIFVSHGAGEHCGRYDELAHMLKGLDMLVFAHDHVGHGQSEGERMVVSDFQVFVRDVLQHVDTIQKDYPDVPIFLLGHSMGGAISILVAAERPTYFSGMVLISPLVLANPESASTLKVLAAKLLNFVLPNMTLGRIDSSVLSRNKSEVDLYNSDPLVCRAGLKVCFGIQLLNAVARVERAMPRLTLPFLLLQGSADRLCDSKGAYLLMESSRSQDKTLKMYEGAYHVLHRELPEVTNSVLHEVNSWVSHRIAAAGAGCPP
Sequence of ABHD6 (Q8R2Y0 whole entry): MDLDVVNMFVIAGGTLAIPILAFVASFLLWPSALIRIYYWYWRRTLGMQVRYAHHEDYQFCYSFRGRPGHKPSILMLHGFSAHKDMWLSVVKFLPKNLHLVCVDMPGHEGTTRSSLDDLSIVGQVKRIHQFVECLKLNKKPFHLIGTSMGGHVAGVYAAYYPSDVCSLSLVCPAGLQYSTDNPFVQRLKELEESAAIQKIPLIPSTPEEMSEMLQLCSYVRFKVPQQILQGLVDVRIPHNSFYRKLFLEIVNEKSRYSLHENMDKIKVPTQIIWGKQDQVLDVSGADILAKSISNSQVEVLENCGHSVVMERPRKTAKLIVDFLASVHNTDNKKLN
Sequence of FAAH (O08914 whole entry): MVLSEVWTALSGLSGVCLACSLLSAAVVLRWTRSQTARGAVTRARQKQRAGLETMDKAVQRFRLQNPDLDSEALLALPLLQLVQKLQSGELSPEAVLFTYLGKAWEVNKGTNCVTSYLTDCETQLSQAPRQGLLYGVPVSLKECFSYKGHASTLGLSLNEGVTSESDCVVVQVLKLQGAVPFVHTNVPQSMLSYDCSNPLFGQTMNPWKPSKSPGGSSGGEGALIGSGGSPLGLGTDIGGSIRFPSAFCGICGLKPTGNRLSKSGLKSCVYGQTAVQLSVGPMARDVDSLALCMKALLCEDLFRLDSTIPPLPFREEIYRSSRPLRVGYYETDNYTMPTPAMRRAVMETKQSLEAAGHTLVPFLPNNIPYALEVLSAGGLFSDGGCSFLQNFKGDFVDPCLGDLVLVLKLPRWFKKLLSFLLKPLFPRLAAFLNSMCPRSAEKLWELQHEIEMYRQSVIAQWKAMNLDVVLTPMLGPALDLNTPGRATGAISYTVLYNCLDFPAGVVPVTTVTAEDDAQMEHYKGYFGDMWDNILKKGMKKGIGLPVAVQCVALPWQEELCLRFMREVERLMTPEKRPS

SMILES | inhibition at 1 µM (MAGL) | IC50 (MAGL) | inhibition at 1 µM (ABHD6) | IC50 (ABHD6) | inhibition at 1 µM (FAAH) | IC50 (FAAH)
CC1(C)CC2(CCN(C(=O)OC(C(F)(F)F)C(F)(F)F)CC2)CN1Cc1cc(Cl)cc(N2CCOCC2)c1 [Example 186, 1,1,1,3,3,3-Hexafluoropropan-2-yl 2-(3-chloro-5-morpholinobenzyl)-3,3-dimethyl-2,8-diazaspiro[4.5]decane-8-carboxylate] | > 75% | 100 to 1000 nM | 25 to 75% | 100 to 1000 nM | < 25% | > 1000 nM
CC1(C)CC2(CCN(C(=O)OC(C(F)(F)F)C(F)(F)F)CC2)CN1Cc1cc(N2CCOCC2)cc(C(F)(F)F)c1 [Example 188, 1,1,1,3,3,3-Hexafluoropropan-2-yl 3,3-dimethyl-2-(3-morpholino-5-(trifluoromethyl)benzyl)-2,8-diazaspiro[4.5]decane-8-carboxylate] | > 75% | 100 to 1000 nM | 25 to 75% | 100 to 1000 nM | < 25% | > 1000 nM
CC1(C)CC2(CCN(C(=O)OC(C(F)(F)F)C(F)(F)F)CC2)CN1Cc1cccc(OC(F)(F)F)c1N1CCOCC1 [Example 190, 1,1,1,3,3,3-Hexafluoropropan-2-yl 3,3-dimethyl-2-(2-morpholino-3-(trifluoromethoxy)benzyl)-2,8-diazaspiro[4.5]decane-8-carboxylate] | > 75% | < 100 nM | < 25% | > 1000 nM | < 25% | > 1000 nM
CC1(C)CC2(CCN(C(=O)OC(C(F)(F)F)C(F)(F)F)CC2)CN1Cc1cc(CN2CCOCC2)ccc1OC(F)(F)F [Example 192, 1,1,1,3,3,3-Hexafluoropropan-2-yl 3,3-dimethyl-2-(5-(morpholinomethyl)-2-(trifluoromethoxy)benzyl)-2,8-diazaspiro[4.5]decane-8-carboxylate] | > 75% | < 100 nM | 25 to 75% | 100 to 1000 nM | < 25% | > 1000 nM
O=C(O)C1CCN(c2cc(CN3CCCC34CCN(C(=O)OC(C(F)(F)F)C(F)(F)F)CC4)cc(OC(F)(F)F)c2)CC1 [Example 207] | > 75% | – | < 25% | – | < 25% | –

Next, values leading:

inhibition at 1 µM (MAGL) | IC50 (MAGL) | inhibition at 1 µM (ABHD6) | IC50 (ABHD6) | inhibition at 1 µM (FAAH) | IC50 (FAAH) | SMILES
> 75% | < 100 nM | 25 to 75% | 100 to 1000 nM | < 25% | > 1000 nM | NC(=O)c1ccc(CN2CCCC23CCN(C(=O)OC(C(F)(F)F)C(F)(F)F)CC3)cc1C(F)(F)F [Example 181, 1,1,1,3,3,3-Hexafluoropropan-2-yl 1-(4-carbamoyl-3-(trifluoromethyl)benzyl)-1,8-diazaspiro[4.5]decane-8-carboxylate]
> 75% | 100 to 1000 nM | ≥ 75% | 100 to 1000 nM | < 25% | > 1000 nM | CC1(C)CC2(CCN(C(=O)OC(C(F)(F)F)C(F)(F)F)CC2)CN1Cc1cccc(N2CCOCC2)c1Cl [Example 185, 1,1,1,3,3,3-hexafluoropropan-2-yl 2-(2-chloro-3-morpholinobenzyl)-3,3-dimethyl-2,8-diazaspiro[4.5]decane-8-carboxylate]
> 75% | < 100 nM | ≥ 75% | 100 to 1000 nM | < 25% | > 1000 nM | CC1(C)CC2(CCN(C(=O)OC(C(F)(F)F)C(F)(F)F)CC2)CN1Cc1cc(Cl)ccc1N1CCOCC1 [Example 187, 1,1,1,3,3,3-Hexafluoropropan-2-yl 2-(5-chloro-2-morpholinobenzyl)-3,3-dimethyl-2,8-diazaspiro[4.5]decane-8-carboxylate]
> 75% | 100 to 1000 nM | 25 to 75% | > 1000 nM | < 25% | > 1000 nM | CC1(C)CC2(CCN(C(=O)OC(C(F)(F)F)C(F)(F)F)CC2)CN1Cc1cccc(CN2CCOCC2)c1F [Example 191, 1,1,1,3,3,3-Hexafluoropropan-2-yl 2-(2-fluoro-3-(morpholinomethyl)benzyl)-3,3-dimethyl-2,8-diazaspiro[4.5]decane-8-carboxylate]
